Read-outs that look alike come from different tables or passages of the source.
Experiments:
[1] = In vitro penetration rate through human skin, Franz cells; format: in vitro ADME
Description: Penetration rates of HPCs through human skin were measured in vitro by Franz cells. A Franz cell has two chambers, a top sample chamber and a bottom receptor chamber.
Test compounds were diethylaminoethyl N-acetyl-3-(3,4-diacetyloxy-phenyl-L-alanine ester.HCl salt (A), diethylaminopropyl N-acetyl-D-3,5,3′,5′-tetraiodothyronine.HCl salt(B), 1-piperidineethyl 2-[4-(4-chlorobenzoyl)phenoxy]-2-methyl-propinate. HCl salt(C), 3-piperidinemethyl 5-(2,5-dimethylphenoxy)-2,2-dimethylpentanoate.HCl salt(D), diethylaminoethyl (S)-3-(benzoylaminomethyl)-5-methylhexanoate.HCl salt(E), N-acetyl-3-(3,4-diacetyloxy-phenyl-L-alanine(F) sodium salt, N-acetyl-D-3,5,3′,5′-tetraiodothyronine sodium salt(G), 2-[4-(4-chlorobenzoyl)phenoxy]-2-methyl-propinic acid sodium salt(H), 5-(2,5-dimethylphenoxy)-2,2-dimethylpentanoic acid sodium salt(I), and (S)-3-(benzoylaminomethyl)-5-methylhexanoic acid sodium salt(J).
10% solution of the test compound in water was used. The amount of a HPC or its parent drug penetrating a skin was determined by high-performance liquid chromatography method. The results were shown in FIG. 8 and apparent flux values of the HPCs and their corresponding parent drugs were summarized in Table 2.

[2] = test system: lesions similar to psoriasis generated by Malassezia; test: Anti-psoriasis activity, Malassezia-induced lesions; format: in vivo, Chinese white rabbits; settings: HPC 5% aq. applied to the lesion areas twice per day
Description: Heavy suspensions of Malassezia [Rosenberg, E. W., et al., Mycopathologia, 72, 147-154 (1980)] were applied to the shaved skin on the backs of Chinese white rabbits (n=4×6) twice (at […]) per day for 2 weeks to generate lesions similar to psoriasis. HPCs (5%, aq.) were applied to the same areas 3 hours (10 am and 6 pm) after the application of Malassezia (7 am and 3 pm). […] HCl, diethylaminoethyl 1,8-diethyl-1,3,4,9-tetrahydropyrano-[3,4-b]indole-1-acetate.HCl, diethylaminoethyl 2-amino-3-(4-bromo-benzoyl)benzeneacetate.HCl, diethylaminoethyl 3-chloro-4-(2-propenyloxy)benzeneacetate. HCl, diethylaminoethyl 1-(4-chlorobenzoyl-5-methoxy-2-methyl-1H-indole-3-acetoxyacetate. HCl, diethylaminoethyl 4-(4-chlorophenyl)-2-phenyl-5-thiazoleacetate.HCl, and diethylaminoethyl 3-(4-chlorophenyl)-1-phenyl-1H-pyrazole-4-acetate.HCl

[3] = test system: Human colon cancer cells (LS174J); test: Human colon cancer xenograft in nude mice; settings: about 50 μl of 5% topically every 12 hours
Excerpt: Human colon cancer cells (LS174J, 2-3 mm^3 of tumor tissue was used in each mouse) were subcutaneously xenografted into nude mice (BALB).

normal SD rats (SLAC/SD) = test: Blood glucose in normal SD rats treated with HPCs of NSAIAs; format: in vivo; settings: 30 mg/kg transdermally once per day, no fasting
Description: (§1) A HPC in the present disclosure lowered blood glucose levels in rat models (SLAC/GK, type 2 diabetes, n=7). 30 mg/kg of 8% diethylaminoethyl acetylsalicylate.HCl salt (P-1, in 25% ethanol); 4-acetamidophenyl salicylyldimethylaminobutyrate.HCl (P-6, in 25% ethanol), diethylaminoethyl 5-(2,4-difluorophenyl)acetylsalicylate.5-(2,4-difluorophenyl)acetylsalicylic acid salt (P-8, in 25% ethanol), diethylaminoethyl salicylsalicylate.HCl salt (P-9, in 25% ethanol), diethylaminoethyl salicylate.AcOH(P-10, in 25% ethanol), diethylaminoethyl 5-acetamido-acetylsalicylate.HCl(P-58, in 25% ethanol), diethylaminoethyl acetylsalicylsalicylate. HCl salt (P-59, in 25% ethanol), diethylaminoethyl acetylsalicylsalicylsalicylate. HCl salt (P-60, in 25% ethanol) were administered transdermally to the backs (6 cm^2, fur was shaved) of GK rats (SLAC/GK, 14-16 weeks old) and normal SD rats (SLAC/SD, 14-16 weeks old) once per day (at 8 am) for 6 weeks.
(§2) The blood glucose levels were measured once every 3 days at 4:30 pm (no fasting) from the third week to the sixth week as shown in Table 10a and 10b. […] Moreover, the blood glucose levels of the rats stayed at normal level (6-9 mmol/L, no fasting) after the treatment was stopped for 40 days.

[4] = test system: GK rats (SLAC/GK, type 2 diabetes); test: Anti-diabetes (type II) activity of HPCs of NSAIAs in GK rats; format: in vivo; settings: 30 mg/kg transdermally once per day, no fasting
Description: as §1, §2

[5] = test system: SLAC:NOD-IDDM, type 1 diabetes; test: Anti-diabetes (type I) activity of HPCs of NSAIAs; format: in vivo, mice
Excerpt: 10% aqueous solution of diethylaminoethyl acetylsalicylate.acetylsalicylic acid salt (P-1, […]); 4-acetamidophenyl salicylyldimethylaminobutyrate. HCl (P-6), diethylaminoethyl 5-(2,4-difluorophenyl)acetylsalicylate.5-(2,4-difluorophenyl)acetylsalicylic acid salt (P-8), diethylaminoethyl salicylsalicylate.AcOH(P-9), diethylaminoethyl 5-acetamido-acetylsalicylate. HCl (P-58), diethylaminoethyl 2-(ρ-isobutylphenyl) propionate.citric acid (P-59), diethylaminoethyl acetylsalicylsalicylate. acetylsalicylsalicylsalicylic acid salt (P-60) (equal to of 20 mg/kg of NSAIAs) were administered transdermally to the shaved back (about 1.5 cm^2) of mice twice per day (at 8 am and 5 pm) for 7 weeks.
The blood glucose levels were measured once every 3 days at 4:30 pm (no fasting) from the fourth week to the seventh week as shown in Table 11.

SLAC/DB/DB obese mice = test: Blood glucose and blood lipid levels in DB/DB mice; format: in vivo; settings: 30 mg/kg transdermally once per day
Description: HPCs in the present disclosure lowered blood glucose levels and blood lipid levels in mice models (SLAC/DB/DB, obese mice, n=7). 30 mg/kg of 8% diethylaminoethyl acetylsalicylate.HCl salt (P-1, in 25% ethanol); 4-acetamidophenyl salicylyldimethylaminobutyrate.HCl (P-6, in 25% ethanol), diethylaminoethyl 5-(2,4-difluorophenyl)acetylsalicylate.5-(2,4-difluorophenyl)acetylsalicylic acid salt (P-8, in 25% ethanol), diethylaminoethyl salicylsalicylate.HCl salt (P-9, in 25% ethanol), diethylaminoethyl salicylate.AcOH(P-10, in 25% ethanol), diethylaminoethyl 5-acetamido-acetylsalicylate.HCl(P-58, in 25% ethanol), diethylaminoethyl acetylsalicylsalicylate.HCl salt (P-59, in 25% ethanol), diethylaminoethyl acetylsalicylsalicylsalicylate.HCl salt (P-60, in 25% ethanol) were administered transdermally to the backs (4 cm^2,fur was shaved) of DB/DB mice(SLAC/DB/DB, 10-12 weeks old) once per day (at 8 am) for 5 weeks. The blood glucose levels were measured once per week and blood lipid levels were measured once every other week.

[6] = 10% solution in water, human skin 360-400 μm, Franz cells

With CC(C)(Oc1ccc(C(=O)c2ccc(Cl)cc2)cc1)C(=O)OCCN1CCCCC1.Cl [1-piperidineethyl 2-[4-(4-chlorobenzoyl)phenoxy]-2-methyl-propinate. HCl salt] the “apparent flux (in vitro penetration rate)” value (“apparent flux” for short) [1] was 590 μg/cm^2/h.
For CC(C)(Oc1ccc(C(=O)c2ccc(Cl)cc2)cc1)C(=O)[O-].[Na+] [2-[4-(4-chlorobenzoyl)phenoxy]-2-methyl-propinic acid sodium salt, reference compound], the “apparent flux” value [1] was 1 μg/cm^2/h.
In the case of Cc1ccc(C)c(OCCCC(C)(C)C(=O)OCC2CCCNC2)c1.Cl (centres unmarked) [3-piperidinemethyl 5-(2,5-dimethylphenoxy)-2,2-dimethylpentanoate.HCl salt], the “apparent flux” value [1] is reported as 400 μg/cm^2/h.
For Cc1ccc(C)c(OCCCC(C)(C)C(=O)[O-])c1.[Na+] [5-(2,5-dimethylphenoxy)-2,2-dimethylpentanoic acid sodium salt, reference compound], the “apparent flux” value ([1]; human, 10 % solution in water) was 1 μg/cm^2/h.
In the case of CC(C)C[C@H](CNC(=O)c1ccccc1)CC(=O)[O-].[Na+] [(S)-3-(benzoylaminomethyl)-5-methylhexanoic acid sodium salt, reference compound], the “apparent flux” value [1, 6] is reported as 1 μg/cm^2/h.
In the case of CC(=O)N[C@@H](Cc1ccc(OC(C)=O)c(OC(C)=O)c1)C(=O)[O-].[Na+] [N-acetyl-3-(3,4-diacetyloxy-phenyl-L-alaninesodium salt, reference compound], the “apparent flux” value [1] is reported as 1 μg/cm^2/h.
For CC(=O)N[C@H](Cc1cc(I)c(Oc2cc(I)c(O)c(I)c2)c(I)c1)C(=O)[O-].[Na+] [N-acetyl-D-3,5,3′,5′-tetraiodothyronine sodium salt, reference compound], the “apparent flux” value ([1]; human, 10 % solution in water) was 1 μg/cm^2/h.
For CCN(CC)CCOC(=O)Cc1ccc(C(=O)c2ccc(C)cc2)n1C.Cl [P-13, diethylaminoethyl 1-methyl-5-(4-methylbenzoyl)-1H-pyrrole-2-acetate.HCl], the “time until lesions healed after the application” value (shortened to “time until lesions healed”) [2] was 10 days, the “Weight of mice at day 30” value [3] was 23 ± 3 and the “tumor Size at day 30” value [3] was 690 ± 250 mm^3.
With CCN(CC)CCOC(=O)c1ccccc1OC(=O)c1ccccc1OC(=O)c1ccccc1OC(C)=O.Cl [P-60, diethylaminoethyl acetylsalicylsalicylsalicylate. HCl salt] the “blood glucose, Average (Week 2-5)” value (normal SD rats (SLAC/SD)) was 5.7 ± 1.1 mmol/L, the “blood glucose, Day 1” value (normal SD rats (SLAC/SD)) was 5.6 ± 1.3 mmol/L and the “blood glucose, Average (Week 2-5)” value [4] was 9.3 ± 2.9 mmol/L. For the same molecule, the “blood glucose, Day 1” value [4] was 15.9 ± 2.8 mmol/L, the “blood glucose, Baseline” value ([5]; equal to 20 mg/kg of NSAIAs transdermally twice per day for 7 weeks) was 17.5 ± 3.3 mmol/L and the “blood glucose, Average” value ([5]; fourth week to seventh week, no fasting, equal to 20 mg/kg of NSAIAs transdermally twice per day) was 8.8 ± 1.9 mmol/L. For the same molecule, the “Cholesterol (total), Day 1” value (SLAC/DB/DB obese mice) was 7.0 ± 0.8 mmol/L, the “Cholesterol (total), Week 5” value (SLAC/DB/DB obese mice) was 5.0 ± 0.4 mmol/L and the “Triglycerides, Day 1” value (SLAC/DB/DB obese mice) was 4.3 ± 0.5 mmol/L. The “Triglycerides, Week 5” value (SLAC/DB/DB obese mice) was 4.3 ± 0.5 mmol/L, the “blood glucose, Day 1” value (SLAC/DB/DB obese mice) was 14.8 ± 2.7 mmol/L and the “blood glucose, Week 5” value (SLAC/DB/DB obese mice) was 9.0 ± 2.1 mmol/L.
In the case of CCc1cccc2c3c([nH]c12)C(CC)(CC(=O)OCCN(CC)CC)OCC3.Cl (centres unmarked) [diethylaminoethyl 1,8-diethyl-1,3,4,9-tetrahydropyrano-[3,4-b]indole-1-acetate.HCl], the “time until lesions healed” value [2] is reported as 10 days.
For CCN(CC)CCOC(=O)COC(=O)Cc1c(C)n(C(=O)c2ccc(Cl)cc2)c2ccc(OC)cc12.Cl [diethylaminoethyl 1-(4-chlorobenzoyl-5-methoxy-2-methyl-1H-indole-3-acetoxyacetate. HCl], the “time until lesions healed” value [2] was 10 days.
In the case of CCN(CC)CCOC(=O)Cc1cccc(C(=O)c2ccc(Br)cc2)c1N.Cl [diethylaminoethyl 2-amino-3-(4-bromo-benzoyl)benzeneacetate.HCl], the “time until lesions healed” value [2] is reported as 10 days.
In the case of CCN(CC)CCOC(=O)Cc1cn(-c2ccccc2)nc1-c1ccc(Cl)cc1.Cl [diethylaminoethyl 3-(4-chlorophenyl)-1-phenyl-1H-pyrazole-4-acetate.HCl], the “time until lesions healed” value [2] is reported as 10 days.
With C=CCOc1ccc(CC(=O)OCCN(CC)CC)cc1Cl.Cl [diethylaminoethyl 3-chloro-4-(2-propenyloxy)benzeneacetate. HCl] the “time until lesions healed” value [2] was 10 days.
With CCN(CC)CCOC(=O)Cc1sc(-c2ccccc2)nc1-c1ccc(Cl)cc1.Cl [diethylaminoethyl 4-(4-chlorophenyl)-2-phenyl-5-thiazoleacetate.HCl] the “time until lesions healed” value [2] was 10 days.
For CCN(CC)CCOC(=O)Cc1cc(C)c(C(=O)c2ccc(Cl)cc2)n1C.Cl [diethylaminoethyl 5-(4-Chlorobenzoyl)-1,4-dimethyl-1H-pyrrole-2-acetate. HCl], the “time until lesions healed” value [2] was 10 days.
With CCN(CC)CCOC(=O)C[C@@H](CNC(=O)c1ccccc1)CC(C)C.Cl [diethylaminoethyl (S)-3-(benzoylaminomethyl)-5-methylhexanoate.HCl salt] the “apparent flux” value [1, 6] was 650 μg/cm^2/h.
With CCN(CC)CCOC(=O)[C@H](Cc1ccc(OC(C)=O)c(OC(C)=O)c1)NC(C)=O.Cl [diethylaminoethyl N-acetyl-3-(3,4-diacetyloxy-phenyl-L-alanine ester.HCl salt] the “apparent flux” value [1] was 550 μg/cm^2/h.
In the case of CCN(CC)CCCOC(=O)[C@@H](Cc1cc(I)c(Oc2cc(I)c(O)c(I)c2)c(I)c1)NC(C)=O.Cl [diethylaminopropyl N-acetyl-D-3,5,3′,5′-tetraiodothyronine.HCl salt], the “apparent flux” value [1] is reported as 480 μg/cm^2/h.
